Key:
[1] = target: T1, native TRPC1:C4 channels in A498 cells (Homo sapiens, UniProt P48995+Q9UBN4); test: [Ca2+]i measurement in A498 renal carcinoma cells; format: cell-based
T1 construct: A498 renal carcinoma cells, which endogenously express TRPC1:C4 channels; endogenous in cells; host or cells: A498

[2] = target: T2, TRPC3 (Homo sapiens, UniProt Q13507); test: [Ca2+]i selectivity assay, WT HEK 293 cells transiently transfected with hTRPC3, OAG activation; format: cell-based; details: 300 nM AM237; 100 μM OAG
T2 construct: expressed in transfected cells; host or cells: WT HEK 293 (transient, jetPRIME)
T2 sequence (Q13507 1-921): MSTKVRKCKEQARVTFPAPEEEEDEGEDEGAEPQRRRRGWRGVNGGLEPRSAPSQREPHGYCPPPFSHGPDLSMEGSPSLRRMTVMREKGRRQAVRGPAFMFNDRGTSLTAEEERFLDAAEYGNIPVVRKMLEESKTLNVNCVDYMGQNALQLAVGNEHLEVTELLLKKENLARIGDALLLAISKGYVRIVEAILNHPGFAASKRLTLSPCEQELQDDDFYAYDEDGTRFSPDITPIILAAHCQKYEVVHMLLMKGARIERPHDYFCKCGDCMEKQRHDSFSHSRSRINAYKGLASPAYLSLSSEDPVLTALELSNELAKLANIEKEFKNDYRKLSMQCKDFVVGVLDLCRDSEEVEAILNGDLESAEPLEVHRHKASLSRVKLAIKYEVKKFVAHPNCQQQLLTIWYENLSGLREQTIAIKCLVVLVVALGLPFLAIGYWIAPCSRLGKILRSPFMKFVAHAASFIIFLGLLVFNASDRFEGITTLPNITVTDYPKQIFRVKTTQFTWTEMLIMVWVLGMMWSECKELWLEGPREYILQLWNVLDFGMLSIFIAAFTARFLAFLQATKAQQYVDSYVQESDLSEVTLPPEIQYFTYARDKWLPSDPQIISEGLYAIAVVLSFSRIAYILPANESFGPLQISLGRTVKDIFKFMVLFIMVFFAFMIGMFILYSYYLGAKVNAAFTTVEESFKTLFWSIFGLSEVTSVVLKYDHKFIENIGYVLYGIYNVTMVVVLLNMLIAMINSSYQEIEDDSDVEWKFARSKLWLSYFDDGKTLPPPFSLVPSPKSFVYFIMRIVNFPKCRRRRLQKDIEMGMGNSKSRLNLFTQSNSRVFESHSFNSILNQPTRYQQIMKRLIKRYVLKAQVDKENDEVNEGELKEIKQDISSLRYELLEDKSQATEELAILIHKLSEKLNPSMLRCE

[3] = system: HEK T-REx (Tet+) cells expressing TRPC5; test: LIVE/DEAD cell viability assay; format: cell-based, human; details: AM237 up to 1 μM, 30 min
Protocol: Cell viability was assayed using the LIVE/DEAD® cell viability kit (Molecular Probes™, Eugene, Oregon, USA). HEK T‐REx expressing tetracycline‐inducible hTRPC5 were plated onto black, clear bottom poly‐D‐lysine‐coated 96‐well plates, at 25,000 cells per well, and TRPC5 protein expression was induced with 1 μg·ml^−1 tetracycline. Cells were cultured for 24 hr in DMEM‐F12 GlutaMAX (Invitrogen, Paisley, UK) containing 10% FBS, with the addition of blasticidin (10 μg·ml^−1) and zeocin (400 μg·ml^−1). For wells containing methanol‐treated positive control cells, medium was removed and 70% methanol/distilled water (100 μl) was added and cells returned to the incubator for 30 min. After incubation, the solution in each well was replaced with recording buffer (SBS with 0.01% pluronic acid and 0.05% DMSO; 100 μl). The LIVE/DEAD® (Molecular Probes™, Eugene, Oregon, US) cell viability kit was used to stain the cells. Calcein AM (5 μl) and ethidium homodimer‐1 (20 μl) were added to SBS with […] (10 ml). Compound and vehicle dilutions were carried out directly in LIVE/DEAD® solution and 100 μl of each was added to the recording buffer in each corresponding well. Cells were incubated for 30 min and immediately imaged. Imaging and analysis was carried out on the IncuCyte® ZOOM (Essen Bioscience, Welwyn Garden City, UK).

T1 sequence (Q9UBN4 whole entry): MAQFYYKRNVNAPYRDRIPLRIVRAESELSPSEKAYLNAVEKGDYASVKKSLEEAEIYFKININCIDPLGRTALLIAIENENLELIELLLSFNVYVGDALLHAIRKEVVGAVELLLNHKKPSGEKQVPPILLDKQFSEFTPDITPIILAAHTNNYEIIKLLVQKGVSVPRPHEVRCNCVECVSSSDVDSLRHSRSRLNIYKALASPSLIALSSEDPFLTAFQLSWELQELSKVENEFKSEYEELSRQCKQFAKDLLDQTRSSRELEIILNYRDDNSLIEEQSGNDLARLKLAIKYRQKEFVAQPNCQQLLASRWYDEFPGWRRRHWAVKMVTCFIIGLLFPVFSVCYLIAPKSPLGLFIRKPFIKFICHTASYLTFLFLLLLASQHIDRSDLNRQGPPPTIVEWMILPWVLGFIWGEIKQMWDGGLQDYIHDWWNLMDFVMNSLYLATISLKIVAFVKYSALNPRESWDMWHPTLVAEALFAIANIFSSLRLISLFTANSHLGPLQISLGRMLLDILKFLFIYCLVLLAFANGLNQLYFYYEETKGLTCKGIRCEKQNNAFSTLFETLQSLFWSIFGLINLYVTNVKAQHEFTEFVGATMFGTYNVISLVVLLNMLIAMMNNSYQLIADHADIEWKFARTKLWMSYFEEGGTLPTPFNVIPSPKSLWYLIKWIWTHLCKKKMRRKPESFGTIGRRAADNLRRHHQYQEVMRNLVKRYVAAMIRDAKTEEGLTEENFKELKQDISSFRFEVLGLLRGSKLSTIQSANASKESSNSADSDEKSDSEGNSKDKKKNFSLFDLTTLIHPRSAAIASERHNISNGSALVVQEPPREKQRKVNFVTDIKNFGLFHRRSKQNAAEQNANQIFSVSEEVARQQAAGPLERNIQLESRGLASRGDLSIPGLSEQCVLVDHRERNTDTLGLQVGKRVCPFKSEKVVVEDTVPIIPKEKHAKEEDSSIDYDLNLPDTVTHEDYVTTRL
T1 sequence (P48995 whole entry): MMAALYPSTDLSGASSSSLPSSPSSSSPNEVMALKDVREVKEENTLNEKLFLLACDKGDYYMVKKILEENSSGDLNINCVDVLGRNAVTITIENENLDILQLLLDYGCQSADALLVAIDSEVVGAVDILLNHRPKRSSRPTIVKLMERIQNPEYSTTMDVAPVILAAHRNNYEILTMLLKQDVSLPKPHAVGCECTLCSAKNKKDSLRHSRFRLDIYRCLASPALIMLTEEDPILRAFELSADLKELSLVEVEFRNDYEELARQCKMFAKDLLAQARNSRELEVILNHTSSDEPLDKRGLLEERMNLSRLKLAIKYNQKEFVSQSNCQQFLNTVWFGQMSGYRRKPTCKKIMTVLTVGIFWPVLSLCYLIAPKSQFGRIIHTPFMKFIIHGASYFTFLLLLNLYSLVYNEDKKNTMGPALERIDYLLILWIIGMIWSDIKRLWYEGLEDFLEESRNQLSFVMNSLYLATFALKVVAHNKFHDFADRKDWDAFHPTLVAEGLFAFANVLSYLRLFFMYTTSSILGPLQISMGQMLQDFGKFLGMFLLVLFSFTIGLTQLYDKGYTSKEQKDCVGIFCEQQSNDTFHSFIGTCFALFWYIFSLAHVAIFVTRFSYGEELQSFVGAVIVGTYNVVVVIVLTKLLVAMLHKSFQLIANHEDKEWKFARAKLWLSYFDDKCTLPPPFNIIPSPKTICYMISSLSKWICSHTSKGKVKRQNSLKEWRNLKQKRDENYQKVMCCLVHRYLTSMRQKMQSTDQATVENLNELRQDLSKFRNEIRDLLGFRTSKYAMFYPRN

Cn1c(=O)n(CCCO)c(=O)c2c1nc(Oc1ccc(Cl)c(OC(F)(F)F)c1)n2Cc1ccc(Cl)cc1 [AM237]
Hill slope, inhibition of EA response [1]: -0.99 | Effect of pretreatment on basal [Ca2+]i ([1]; 0.01–10 nM AM237): no effect | Activation upon acute administration ([Ca2+]i) ([1]; 3-300 nM AM237): lack of activation | IC50 ([1]; AM237 pretreatment, then EA, read-out: IC50, inhibition of EA-mediated increase in [Ca2+]i): 0.849 nM | Activation or inhibition of TRPC3 [2]: no activation or inhibition | Cell viability (LIVE/DEAD) [3]: did not lead to reduced
